Measured values taken from PMC11201061, “Mechanistic Study of Antimicrobial Effectiveness of Cyclic Amphipathic Peptide [R4W4] against Methicillin-Resistant Staphylococcus aureus Clinical Isolates” (Antibiotics, 2024).
In brackets after ≈: the same amount, converted by molar mass. Where a name gives a salt, the structure may show the parent alone. Read-outs that look alike come from different tables or passages of the source. Where a SMILES comes first, the peptide text is derived from it.

Tests used:
MRSA Clin 5 = assay: microbe, parasite or virus in culture; format: cell-based, Staphylococcus aureus; settings: for MBC/MIC: MRSA Clin 5, lung isolate
Protocol: (§1) To determine whether the antibacterial activity of [R4W4] is bacteriostatic or bactericidal against clinical isolates of multidrug-resistant bacterial isolates, MIC and MBC were determined using the microbroth dilution method. Bacteriostatic activity was defined as a ratio of the MBC/MIC greater than four and bactericidal activity as MBC/MIC ratio ≤ 4 [33]. We added aliquots of test samples (256 μg/mL concentration of [R4W4] or vancomycin as a control prepared in TSB) to the first well of microplates. MHB media was added to the remaining wells. Two-fold serial dilutions were performed, starting with the highest drug concentration in well 1, and the dilution process continued. A bacterial aliquot of 1/150 dilution was prepared with a 0.5 McFarland standard solution from an overnight culture of the tested bacteria isolate. Bacteria were added to the microplate and placed into wells with the drug dilutions. The microplates were incubated overnight for 24 h at 37 °C. [R4W4] was synthesized and purified, as reported earlier.

MRSA LAC [1] = assay: microbe, parasite or virus in culture; format: cell-based, Staphylococcus aureus; settings: for MBC/MIC: MRSA LAC, wound isolate
Protocol: as §1

MRSA Clin 6 = assay: microbe, parasite or virus in culture; format: cell-based, Staphylococcus aureus; settings: for MBC/MIC: MRSA Clin 6, lung isolate
Protocol: as §1

MRSA Mec III = assay: microbe, parasite or virus in culture; format: cell-based, Staphylococcus aureus; settings: for MBC/MIC: MRSA Mec III, wound isolate
Protocol: as §1

[2] = test system: MRSA (vancomycin hetero-non-susceptible) MU3; assay: microbe, parasite or virus in culture; format: cell-based, Staphylococcus aureus
Protocol: as §1

MRSA Mec II = assay: microbe, parasite or virus in culture; format: cell-based, Staphylococcus aureus; settings: for MBC/MIC: MRSA Mec II, blood isolate
Protocol: as §1

MRSA Mec V = assay: microbe, parasite or virus in culture; format: cell-based, Staphylococcus aureus; settings: for MBC/MIC: MRSA Mec V, wound isolate
Protocol: as §1

MRSA Mec IV = assay: microbe, parasite or virus in culture; format: cell-based, Staphylococcus aureus; settings: for MBC/MIC: MRSA Mec IV, lung isolate
Protocol: as §1

MRSA Mec 1 = assay: microbe, parasite or virus in culture; format: cell-based, Staphylococcus aureus; settings: for MBC/MIC: MRSA Mec 1, blood isolate
Protocol: as §1

MRSA LAC [3] = settings: for % Reduction in viable bacteria / Lethal rate (LR), log10 reduction: MRSA LAC in MHB; for viable bacteria at 26 h: MRSA LAC; for % reduction in viable bacteria over 1 × MIC, 2 × MIC and 4 × MIC: MRSA in MHB, range over the three concentrations
Protocol: The MRSA Los Angeles County (LAC) USA300 strain was cultured from −80 °C freezer stock and inoculated on an agar plate overnight. Two bacteria colonies were inoculated in MH broth overnight at 37 °C with shaking at 200 rpm. An aliquot was added to normal saline to achieve a 0.5 McFarland Standard suspension and then diluted 1:150 with MHB. The bacteria sample was plated on an agar plate at time zero. The test samples were prepared by adding [R4W4] or vancomycin to bacteria to achieve the final sample concentration of (1 × MIC, 2 × MIC, 4 × MIC) using media without antibacterial agents as positive control.
[…] The samples were diluted to minimize excessive CFU counts. The inoculated plates were incubated at 37 °C overnight. The surviving organisms were determined by counting colonies as CFU/plate. The average duplicate counts were multiplied by the dilution factors to arrive at CFU/mL. The microbial reduction was calculated by converting the count to log10 scale. The Log CFU/mL was plotted against time for different antibacterial concentrations.

MRSA LAC [4] = assay: microbe, parasite or virus in culture; format: cell-based, Staphylococcus aureus; settings: for MIC: Staphylococcus aureus, MRSA
Protocol: The effects of cations on the antimicrobial activity of [R4W4] were determined against MRSA using vancomycin as a control. The bacteria aliquots were treated with MHB media containing the final concentration of sodium chloride (NaCl) (150, 75, 37.5, and 18.75 mM), calcium chloride (CaCl2) (8, 4, 2, and 1 mM), and ferric chloride (FeCl3) (1, 4, and 8 µM) in 96 well microplates. The MIC of [R4W4] and vancomycin were determined to determine whether there were changes in the MIC values when treated with different salt concentrations.

MRSA USA300 = assay: Membrane depolarization assay with DisC3(5); format: cell-based, Staphylococcus aureus
Protocol: Buffer A (5 mM HEPE and 5 mM glucose) and Buffer B (5 mM HEPE, 5 mM glucose, and 0.2 mM EDTA) solutions were prepared and filtered using 0.2 μm filters. Bacteria strains (MRSA and E. coli) from a −80 °C freezer were inoculated on an agar plate overnight. Two to three colonies of each bacteria strain were inoculated in 8 mL Cation-Adjusted Muller-Hinton Broth (CAMHB) and allowed to grow overnight. The overnight grown MRSA or E. coli bacteria was diluted with a fresh CAMHB (1:100) and incubated at 37 °C for 5 h with shaking at 220 rpm. The resulting bacteria cells at the growth phase were centrifuged at 3700× g at 4 °C for 10 min. The bacteria pellets were washed three times with buffer A and then resuspended in buffer A to an OD600nm of 0.05.
On the other hand, E. coli was resuspended in buffer B to an OD600nm of 0.05 to facilitate fluorescence dye DSC5 uptake. Then, 20 mL of each bacteria suspension was mixed with 10 μL of 100 μM dye in a dark place for 45 min. After incubation, potassium chloride was added to the two bacteria suspensions to a final concentration. […] The fluorescence intensity was measured at excitation and emission wavelengths of 622 nm and 670 nm, respectively.

[5] = Staphylococcus aureus, MRSA, 24 h

## N=C(N)NCCC[C@@H]1NC(=O)[C@H](CCCNC(=N)N)NC(=O)[C@H](CCCNC(=N)N)NC(=O)[C@H](Cc2c[nH]c3ccccc23)NC(=O)[C@H](Cc2c[nH]c3ccccc23)NC(=O)[C@H](Cc2c[nH]c3ccccc23)NC(=O)[C@H](Cc2c[nH]c3ccccc23)NC(=O)[C@H](CCCNC(=N)N)NC1=O [[R4W4]] (cyclo(RRRRWWWW))
MRSA Clin 5; Clin 5, 24 h
  MBC: 32 µg/mL (≈ 23.4 µM)
  MIC: 16 µg/mL (≈ 11.7 µM)
MRSA Clin 5
  MBC/MIC: 2
MRSA LAC [1]; LAC, 24 h
  MBC: 16 µg/mL (≈ 11.7 µM)
MRSA LAC [1]
  MBC/MIC: 4
MRSA Clin 6; Clin 6, 24 h
  MBC: 32 µg/mL (≈ 23.4 µM)
  MIC: 32 µg/mL (≈ 23.4 µM)
MRSA Clin 6
  MBC/MIC: 1
MRSA Mec III
  MBC/MIC: 2
MRSA Mec III; Mec III, 24 h
  MBC: 8 µg/mL (≈ 5.84 µM)
  MIC: 4 µg/mL (≈ 2.92 µM)
[2]; MRSA MU3, lung isolate
  MBC/MIC: 2
[2]; MRSA MU3, lung isolate, averages of triplicates of three different experiments
  MBC: 32 µg/mL (≈ 23.4 µM)
[2]; vancomycin hetero-non-susceptible) MU3, 24 h
  MIC: 16 µg/mL (≈ 11.7 µM)
MRSA Mec II
  MBC/MIC: 2
MRSA Mec II; Mec II, 24 h
  MBC: 8 µg/mL (≈ 5.84 µM)
  MIC: 4 µg/mL (≈ 2.92 µM)
MRSA Mec V
  MBC/MIC: 4
MRSA Mec V; Mec V, 24 h
  MBC: 64 µg/mL (≈ 46.7 µM)
  MIC: 16 µg/mL (≈ 11.7 µM)
MRSA Mec IV
  MBC/MIC: 2
MRSA Mec IV; Mec IV, 24 h
  MBC: 64 µg/mL (≈ 46.7 µM)
  MIC: 32 µg/mL (≈ 23.4 µM)
MRSA Mec 1
  MBC/MIC: 2
MRSA Mec 1; Mec 1, 24 h
  MBC: 4 µg/mL (≈ 2.92 µM)
  MIC: 2 µg/mL (≈ 1.46 µM)
MRSA LAC [3]; 1 × MIC, 100 × (1 − 10^−LR)
  % Reduction in viable bacteria: 99.67%
MRSA LAC [3]; 2 × MIC
  % Reduction in viable bacteria: 99.78%
  Lethal rate (LR), log10 reduction: 2.65
MRSA LAC [3]; 4 × MIC
  % Reduction in viable bacteria: 99.87%
  Lethal rate (LR), log10 reduction: 2.89
  viable bacteria at 26 h: bacteria remaining viable up to 26 h
MRSA LAC [3]
  % reduction in viable bacteria over 1 × MIC, 2 × MIC and 4 × MIC: 99.67–99.87%
MRSA LAC [4]; LAC
  MIC in the presence of sodium chloride: 6 to 8 µg/mL
MRSA LAC [4]; MRSA LAC, MHB without added salt
  MIC under normal physiological conditions: 4 µg/mL
MRSA LAC [4]; MRSA LAC, FeCl3 1, 2, 4 and 8 μM
  MIC in the presence of ferric chloride: increases proportionally with the concentration of ferric chloride
MRSA USA300; [R4W4] at 2 × MIC
  DisC3(5) fluorescence (membrane depolarization): fluorescence decreases below that of vancomycin and control
MRSA USA300; [R4W4] at 16 × MIC
  DisC3(5) fluorescence (membrane depolarization): enhanced fluorescence signal that surpassed that of nisin

## CN[C@H](CC(C)C)C(=O)N[C@H]1C(=O)N[C@@H](CC(N)=O)C(=O)N[C@H]2C(=O)N[C@H]3C(=O)N[C@H](C(=O)N[C@H](C(=O)O)c4cc(O)cc(O)c4-c4cc3ccc4O)[C@H](O)c3ccc(c(Cl)c3)Oc3cc2cc(c3O[C@@H]2O[C@H](CO)[C@@H](O)[C@H](O)[C@H]2O[C@H]2C[C@](C)(N)[C@H](O)[C@H](C)O2)Oc2ccc(cc2Cl)[C@H]1O [Vancomycin, Vancomycin Hydrochloride, reference compound]
MRSA Clin 5
  MBC/MIC: 1
MRSA Clin 5; Staphylococcus aureus, MRSA
  MBC: 2 µg/mL
MRSA Clin 5; [5]
  MIC: 2 µg/mL
MRSA LAC [1]
  MBC/MIC: 2
MRSA LAC [1]; Staphylococcus aureus, MRSA
  MBC: 2 µg/mL
MRSA LAC [1]; [5]
  MIC: 1 µg/mL
MRSA Clin 6
  MBC/MIC: 4
MRSA Clin 6; Staphylococcus aureus, MRSA
  MBC: 8 µg/mL
MRSA Clin 6; [5]
  MIC: 2 µg/mL
MRSA Mec III
  MBC/MIC: 2
MRSA Mec III; Staphylococcus aureus, MRSA
  MBC: 2 µg/mL
MRSA Mec III; [5]
  MIC: 1 µg/mL
[2]; MRSA MU3, lung isolate
  MBC/MIC: 1.5
[2]; Staphylococcus aureus, MRSA
  MBC: 3 µg/mL
[2]; [5]
  MIC: 2 µg/mL
MRSA Mec II
  MBC/MIC: 2
MRSA Mec II; Staphylococcus aureus, MRSA
  MBC: 4 µg/mL
MRSA Mec II; [5]
  MIC: 2 µg/mL
MRSA Mec V
  MBC/MIC: 2
MRSA Mec V; Staphylococcus aureus, MRSA
  MBC: 4 µg/mL
MRSA Mec V; [5]
  MIC: 2 µg/mL
MRSA Mec IV
  MBC/MIC: 4
MRSA Mec IV; Staphylococcus aureus, MRSA
  MBC: 8 µg/mL
MRSA Mec IV; [5]
  MIC: 2 µg/mL
MRSA Mec 1
  MBC/MIC: 2
MRSA Mec 1; Staphylococcus aureus, MRSA
  MBC: 2 µg/mL
MRSA Mec 1; [5]
  MIC: 1 µg/mL
MRSA LAC [3]; 1 × MIC ([R4W4] 4 µg/mL, vancomycin 1 µg/mL)
  Lethal rate (LR), log10 reduction: 1.02
MRSA LAC [3]; 1 × MIC, 100 × (1 − 10^−LR)
  % Reduction in viable bacteria: 90.50%
MRSA LAC [3]; 1 × MIC, 100 × (1 − 10^−LR), listed as vancomycin
  % Reduction in viable bacteria: > 90%
MRSA LAC [3]; 2 × MIC
  % Reduction in viable bacteria: 98.98%
  Lethal rate (LR), log10 reduction: 1.99
MRSA LAC [3]; 4 × MIC
  % Reduction in viable bacteria: 99.58%
  Lethal rate (LR), log10 reduction: 2.37
  viable bacteria at 26 h: no viable bacteria were recovered at 26 h
MRSA LAC [3]
  % reduction in viable bacteria over 1 × MIC, 2 × MIC and 4 × MIC: 90.50–99.58%
MRSA LAC [4]; read-out: MIC in the presence of calcium chloride
  MIC: 0.75 µg/mL
MRSA LAC [4]; read-out: MIC in the presence of ferric chloride
  MIC: 0.625 to 1.25 µg/mL
MRSA LAC [4]; read-out: MIC in the presence of sodium chloride
  MIC: 1 to 2 µg/mL
MRSA LAC [4]; read-out: MIC under normal physiological conditions
  MIC: 1 µg/mL
MRSA USA300; controls at 100 µg/mL
  DisC3(5) fluorescence versus control: no significant difference
